Results: PMC11983575, “Study on the synthesis and biological activity of kojic acid triazol thiosemicarbazide Schiff base derivatives” (Journal of Enzyme Inhibition and Medicinal Chemistry, 2025)
“Also recorded” adds a separate entry of the source.

Assays:
[1] = DPPH free radical scavenging activity assay; conditions: DPPH 150 μM, 30 min, 517 nm; read-out: DPPH/IC50 (μM) ± SD
Description: The anti-oxidation effect on DPPH radical was determined by a slightly modified version of a previously described DPPH radical scavenging assay. Reaction mixtures consisted of 100 μl of DPPH (150 μM), 20 μl of increasing concentration of test compounds and the volume was adjusted to 200 μl in each well with DMSO. The assay solution was then incubated at room temperature (25 °C) for 30 min in the dark. After the incubation, absorbance at 517 nm was measured by using UV-2600 spectrophotometer. The experiments were undertaken in triplicate. DMSO was used as a control. Ascorbic acid was used as antioxidant standard for comparison of the activity. The calculation of DPPH radical scavenging activity was followed by this formula: DPPH radical scavenging activity %=absorbance of standard−absorbance of sample/Absorbance of standard×100

[2] = ABTS radical cation scavenging activity assay; conditions: 734 nm; read-out: ABTS+/IC50 (μM) ± SD
Description: ABTS free radical scavenging activity was performed according to the procedure described by Zhang et al.[40] Test solution of ABTS decolourisation assay was prepared by mixing 2.45 mM potassium persulfate and 7 mM ABTS at 8:12 volume/volume ratio. The working solution was kept in the dark at room temperature for 12–18 h. Before ABTS radical scavenging test, the ABTS test solution was diluted with DMSO to absorbance of 0.7 (±0.02) at 734 nm. One millilitre of diluted ABTS test solution was added to 10 μl of DMSO or test sample. After initial mixing, the working solution was kept in the dark at room temperature for 2–6 min, and the absorbance was measured at 734 nm. This test was carried out in triplicate. DMSO was used as a control. Ascorbic acid was used as antioxidant standard for comparison of the activity. The absorbance of test samples was calculated by the following formula. ABTS scavenging ability %=absorbance of standard−absorbance of sample/absorbance of standard×100.

fresh-cut apples = test: Effects on the browning process of fresh-cut apples; set-up: species or system Fuji apples; conditions: 6w 25, 50, 100 μM; storage at 5 °C for five days; kojic acid and vitamin C 50 μM as positive controls
Description: Fuji apples were planted in Yantai, China, and were bought from Walmart supermarket in Shaoyang, China. The apples were come from the same batch having similar shapes, maturity, and without injuries, rot, diseases, or pests. Apples were cut into thin pieces with same size by using a sharp knife. Then, the fresh-cut slices were divided randomly into different groups: blank control group was immersed in ethanol for 10 min at room temperature, treatment groups were dipped in the solution of compound 6w under the same conditions, positive groups were dipped in 50 μM kojic acid and 50 μM vitamin C under the same conditions. The test samples were air-dried naturally and immediately were separately packaged with polyethylene clam-packs, and stored at 2–8 °C, and used for the following experimental measurements.
According to the reported protocol, the colour of apple samples was tested by a CR-400 Minolta […] instrument (Konica Minolta, Osaka, Japan). Three data of L*, a*, and b* were recorded for each sample. The L* values indicate lightness, the a* values show reddish-greenish, the b* values represent yellowish-bluish. The colour measurement was carried out in triplicate by random sampling.
Therefore, we further evaluated its anti-browning effect on apple, in which kojic acid and vitamin C were used as positive control. […]

2-(1-(4-((1-((5-Hydroxy-4-oxo-4H-pyran-2-yl)methyl)-1H-1,2,3-triazol-5-yl)methoxy)phenyl)ethylidene)hydrazinecarbothioamide [Compound 6w]
IC50 [1]: 14.44 ± 0.077 µM | IC50 [2]: 3.03 ± 0.009 µM | anti-browning effect on fresh-cut apple (L* values, colour) (fresh-cut apples): potent anti-browning agent; also recorded: better than that of kojic acid and ascorbic acid; also recorded: some anti-browning effect
